{"source": "patent US12465648B2", "about": "“Heterobifunctional compounds as degraders of HPK1” (ICAHN SCHOOL OF MEDICINE AT MOUNT SINAI, priority 2019, dated 2025)", "key": {"primary murine T cells [1]": {"tested_on": "primary murine T cells", "test": "Proliferation of primary murine T cells", "format": "cell-based, mouse", "protocol": "(§1) EXAMPLE 348. Several compounds according to the present invention employing the indolin-2-one HPK1 binding base, (which henceforth shall be referred to as the HC58 series, the HC65 series and the HC75 series) were assessed on their abilities to degrade HPK1 and produce an elevated IL-2 response profile upon stimulation by anti-CD3- and anti-CD28-mAb-mediated (CD3XCD28) stimulation (FIGS. 1-4). The elevated IL-2 response profile induced by TCR engagement after exposure to HC58 series of HPK1 degraders is shown in FIG. 1. […] A select sub-set of the lead HPK1 degraders from the HC58 series were further characterized to determine whether they could degrade primary mouse T cells."}, "HPK1 [2]": {"target": "T1, HPK1 (Homo sapiens, UniProt Q92918)", "T1 construct": "endogenous in cells; host or cells: Jurkat T cells", "T1 sequence (Q92918 whole entry)": "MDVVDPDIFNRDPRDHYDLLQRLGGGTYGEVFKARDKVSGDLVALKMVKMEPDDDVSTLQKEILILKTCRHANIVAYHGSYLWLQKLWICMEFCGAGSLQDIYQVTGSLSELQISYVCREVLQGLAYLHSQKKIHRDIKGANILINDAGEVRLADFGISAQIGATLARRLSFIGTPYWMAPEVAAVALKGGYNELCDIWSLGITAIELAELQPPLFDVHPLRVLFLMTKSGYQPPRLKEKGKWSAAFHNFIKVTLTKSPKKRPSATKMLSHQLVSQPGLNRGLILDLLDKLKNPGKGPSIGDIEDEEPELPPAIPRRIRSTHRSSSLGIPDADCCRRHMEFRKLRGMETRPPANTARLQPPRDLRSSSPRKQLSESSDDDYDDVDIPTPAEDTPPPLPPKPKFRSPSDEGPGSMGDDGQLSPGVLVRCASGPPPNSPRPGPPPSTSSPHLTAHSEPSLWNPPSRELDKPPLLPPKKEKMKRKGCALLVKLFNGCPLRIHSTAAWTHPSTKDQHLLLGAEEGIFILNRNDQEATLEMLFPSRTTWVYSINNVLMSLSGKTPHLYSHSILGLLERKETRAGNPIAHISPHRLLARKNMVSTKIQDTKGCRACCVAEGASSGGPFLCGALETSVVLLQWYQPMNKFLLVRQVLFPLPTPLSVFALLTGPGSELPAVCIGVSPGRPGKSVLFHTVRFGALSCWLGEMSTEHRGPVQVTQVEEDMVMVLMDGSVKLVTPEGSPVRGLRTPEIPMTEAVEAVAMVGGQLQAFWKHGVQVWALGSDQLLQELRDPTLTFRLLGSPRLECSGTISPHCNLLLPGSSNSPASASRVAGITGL", "test": "Western blot analysis of endogenous HPK1 level in Jurkat T cells", "format": "cell-based"}, "primary murine T cells [3]": {"tested_on": "primary murine T cells", "test": "IL-2 production by primary murine T cells", "format": "cell-based, mouse", "protocol": "as §1"}, "human PBMCs": {"tested_on": "human PBMCs", "test": "Intracellular IFNγ and TNFα staining of human PBMC (FACS)", "format": "cell-based", "settings": "in combination with blinatumomab", "description": "EXAMPLE 355. One of the mechanisms employed by PBMC to kill their target cells is by releasing IFNγ and TNFα production. These inflammatory cytokines are known have potent cytolytic effects on cancer cells. […] Mediated PBMC killing of the Raji cells is most evident at PBMC:Raji ratio of 5:1 (FIG. 13).\nTo determine the number of CD19^+ Raji cells killed by human PBMC that were activated by the Blinatumomab-mediated activation, we used CountBright cell counting beads to estimate the number of cells remained after 72 hours of co-culturing of PBMC and Raji. As for the intracellular staining of the TNFα and the IFNγ, the standard para-formaldehyde-based “fix and perm” procedure was used in order to quantitate the amount of intracellular cytokine trapped inside the cells by brefeldin A. FACS analysis of stained cells is performed by BD's LSR II FACS."}, "primary GFP+ Tregs": {"tested_on": "primary GFP+ Tregs", "test": "IL-2 production by primary GFP+ Tregs in response to TCR engagement", "format": "cell-based", "settings": "stimulation by TCR engagement (FIG. 7)"}, "HPK1 [4]": {"target": "T2, HPK1 (Mus musculus, UniProt P70218)", "T2 construct": "HPK1 degraders could effectively degrade endogenous HPK1 in murine T cells; endogenous in cells; host or cells: primary mouse T cells", "T2 sequence (P70218 1-827)": "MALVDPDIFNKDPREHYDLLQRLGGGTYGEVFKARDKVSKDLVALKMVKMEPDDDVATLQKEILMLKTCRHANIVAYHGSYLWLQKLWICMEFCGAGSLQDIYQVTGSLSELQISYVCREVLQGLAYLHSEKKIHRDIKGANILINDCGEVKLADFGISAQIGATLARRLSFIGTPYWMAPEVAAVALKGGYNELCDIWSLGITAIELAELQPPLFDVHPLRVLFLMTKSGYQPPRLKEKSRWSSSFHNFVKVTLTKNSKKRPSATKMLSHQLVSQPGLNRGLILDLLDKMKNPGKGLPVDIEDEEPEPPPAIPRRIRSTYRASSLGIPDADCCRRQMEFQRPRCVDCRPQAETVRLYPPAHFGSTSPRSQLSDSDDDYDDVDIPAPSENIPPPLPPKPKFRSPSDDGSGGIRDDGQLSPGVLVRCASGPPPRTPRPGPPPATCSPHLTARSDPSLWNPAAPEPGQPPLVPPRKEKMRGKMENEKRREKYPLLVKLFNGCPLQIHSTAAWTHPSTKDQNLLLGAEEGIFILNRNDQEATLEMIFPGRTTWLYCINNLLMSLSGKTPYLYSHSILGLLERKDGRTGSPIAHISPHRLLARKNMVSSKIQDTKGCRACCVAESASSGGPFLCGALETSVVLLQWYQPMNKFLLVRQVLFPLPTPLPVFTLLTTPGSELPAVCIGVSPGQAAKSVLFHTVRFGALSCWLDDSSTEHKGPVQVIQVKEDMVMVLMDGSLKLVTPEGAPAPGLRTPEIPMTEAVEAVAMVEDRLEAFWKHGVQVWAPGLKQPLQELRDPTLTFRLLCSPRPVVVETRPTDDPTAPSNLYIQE", "test": "HPK1 degradation in primary mouse T cells", "format": "cell-based", "settings": "300 nM", "protocol": "as §1\nEXAMPLE 353. HPK1 is expressed in all hematopoietic cells examined to date, including T cells, B cells, dendritic cells and neutrophils. Because the breath of therapeutic approaches might involve the use of Chimeric Antigen Receptor (CAR) T cells, dendritic cells, TCR transgenic T cells and Tumor Infiltrating Lymphocytes (TILs), selected HPK1 degraders were evaluated to determine whether they could degrade HPK1 effectively in some of these cell types. […] Potent degradation of HPK1 by HPK1 degraders was also observed in the human DC1 dendritic cells."}, "CD4+eGFP+ Tregs": {"tested_on": "CD4+eGFP+ Tregs", "test": "IL-2 production by regulatory T cells (Tregs) on CD3XCD28 stimulation (IL-2 ELISA)", "format": "cell-based, mouse", "settings": "compared with HPK1-/- Tregs", "description": "EXAMPLE 350. It was observed that HPK1^−/− regulatory T cells (Treg), unlike their wild type counterparts, could readily produce IL-2 in response to CD3XCD28 stimulation. Taking advantage of the FoxP3-driven eGFP reporter mice that express eGFP only in the FoxP3^+ regulatory T cells (Tregs), bonafide Tregs were purified from spleens and lymph nodes by FACS-assisted sorting of CD4^+eGFP^+ Tregs and used as the source of ex vivo functional studies. The ability of the wild type Treg, the HPK1^−/− Tregs and the HC58-78-treated wild type Tregs to produce IL-2 in response to CD3XCD28 stimulation was compared. […] Wild type regulatory T cells could not produce the IL-2 in response to the same stimulation due to the transcriptional repression of the IL-2 locus by the FoxP3 transcription factor (FIG. 7, the white histogram bar)."}}}
{"smiles": "Cc1[nH]c(/C=C2\\C(=O)Nc3ccc(F)cc32)c(C)c1C(=O)NCCCN1CCN(CC(=O)NCCCCCCCCNc2cccc3c2C(=O)N(C2CCC(=O)NC2=O)C3=O)CC1", "note": "(centres unmarked) [HC58-78, (Z)—N-(3-(4-(2-((8-((2-(2,6-dioxopiperidin-3-yl)-1,3-dioxoisoindolin-4-yl)amino)octyl)amino)-2-oxoethyl)piperazin-1-yl)propyl)-5-((5-fluoro-2-oxoindolin-3-ylidene)methyl)-2,4-dimethyl-1H-pyrrole-3-carboxamide]", "values": [{"measurement": "proliferation compared with the DMSO-treated counterpart", "setting": "primary murine T cells [1]", "value": "proliferate much more quickly than the DMSO-treated counterpart"}, {"measurement": "endogenous level of HPK1", "setting": "HPK1 [2]; Jurkat T cells, multiple day post exposure (FIG. 3)", "value": "could reduce the endogenous level of HPK1"}, {"measurement": "reducing HPK1 protein levels", "setting": "HPK1 [2]; characterization of exemplary degraders (FIGS. 1-14)", "value": "especially effective in reducing HPK1 protein levels"}, {"measurement": "IL-2 production compared with the DMSO-treated counterpart", "setting": "primary murine T cells [3]", "value": "produced more IL-2 than the DMSO-treated counterpart"}, {"measurement": "percentage of human PBMCs that express high level of IFNγ and TNFα", "setting": "human PBMCs", "value": "significantly increased"}, {"measurement": "IL-2 production", "setting": "primary GFP+ Tregs", "value": "elevated IL-2 production"}, {"measurement": "degradation of HPK1 protein in primary T cells compared with Jurkat T cells", "setting": "HPK1 [4]", "value": "could degrade more HPK1 protein in primary T cells than in Jurkat T cells"}, {"measurement": "IL-2 production by treated wild type Tregs", "setting": "CD4+eGFP+ Tregs", "value": "produced IL-2 at level comparable to that produced by HPK1^−/− Tregs"}]}
